Data: PubChem BioAssay AID651901 (NMMLSC, 2012)
Activity calls are given as the source filed them. How the calls were made is not given here.

biological target: Lethal factor (Bacillus anthracis) (UniProt P15917); experiment: Bacillus anthracis LF protease inhibitors, dose response, biochemical, multiplex microsphere (AID 651901); conditions: multiplex microsphere LF protease cleavage assay, flow cytometry
Sequence (P15917 whole entry, looked up): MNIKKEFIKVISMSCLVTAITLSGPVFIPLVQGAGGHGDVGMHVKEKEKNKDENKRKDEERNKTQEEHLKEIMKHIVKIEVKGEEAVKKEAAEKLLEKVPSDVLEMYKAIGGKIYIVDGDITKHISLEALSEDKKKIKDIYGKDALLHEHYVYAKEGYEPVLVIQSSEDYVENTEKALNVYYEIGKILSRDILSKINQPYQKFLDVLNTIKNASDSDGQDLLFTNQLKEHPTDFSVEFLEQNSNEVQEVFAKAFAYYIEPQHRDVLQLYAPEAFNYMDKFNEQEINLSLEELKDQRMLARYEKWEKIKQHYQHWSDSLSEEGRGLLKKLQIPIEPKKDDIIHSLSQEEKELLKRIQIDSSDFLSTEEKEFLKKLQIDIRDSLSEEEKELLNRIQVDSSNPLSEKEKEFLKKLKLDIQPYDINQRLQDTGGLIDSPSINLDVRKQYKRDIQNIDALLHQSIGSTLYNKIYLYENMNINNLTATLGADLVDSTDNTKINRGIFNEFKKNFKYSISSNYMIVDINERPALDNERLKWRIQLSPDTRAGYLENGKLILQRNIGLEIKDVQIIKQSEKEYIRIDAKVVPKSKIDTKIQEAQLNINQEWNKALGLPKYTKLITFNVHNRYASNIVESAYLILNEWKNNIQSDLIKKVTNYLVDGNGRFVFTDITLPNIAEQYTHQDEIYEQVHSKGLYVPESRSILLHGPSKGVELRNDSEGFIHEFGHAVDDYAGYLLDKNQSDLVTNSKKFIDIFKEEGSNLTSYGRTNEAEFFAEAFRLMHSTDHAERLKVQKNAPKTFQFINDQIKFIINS

Structure (SMILES) | IC50
O=C(c1ccc(N2N=C(c3ccccc3)CC2c2ccccc2)cc1)N1CCCCC1 (centres undefined) | > 20 µM (inactive)
c1ccc(C2=NN(c3ccccc3)C(c3ccccc3)C2)cc1 (centres undefined) | > 20 µM (inactive)
NS(=O)(=O)c1ccc(N2N=C(c3ccncc3)CC2c2ccccc2)cc1 (centres undefined) | > 20 µM (inactive)
CS(=O)(=O)c1ccc(N2N=C(c3ccccc3)CC2c2ccccc2)cc1 (centres undefined) | > 20 µM (inactive)
CSc1ccc(C2=NN(c3ccccc3)C(c3ccccc3)C2)cc1 (centres undefined) | > 20 µM (inactive)
CSc1ccc(C2=NN(c3ccc(S(N)(=O)=O)cc3)C(c3ccccc3)C2)cc1 (centres undefined) | > 20 µM (inactive)
NS(=O)(=O)c1ccc(N2N=C(c3ccccc3)CC2c2ccccc2)cc1 (centres undefined) | > 20 µM (inactive)
CC(C)CNC(=O)c1ccc(N2N=C(c3ccccc3)CC2c2ccccc2)cc1 (centres undefined) | > 20 µM (inactive)
c1ccc(-c2cc(-c3ccccc3)n(-c3ccccc3)n2)cc1 | > 20 µM (inactive)
CSc1ccc(C2=NN(c3ccc(S(C)(=O)=O)cc3)C(c3ccccc3)C2)cc1 (centres undefined) | > 20 µM (inactive)
O=C(c1ccc(N2N=C(c3ccccc3)CC2c2ccccc2)cc1)N1CCOCC1 (centres undefined) | > 20 µM (inactive)
CSc1ccc(C2=NN(c3ccc([N+](=O)[O-])cc3)C(c3ccccc3)C2)cc1 (centres undefined) | 0.1 µM
O=[N+]([O-])c1ccc(N2N=C(c3ccccc3)CC2c2ccccc2)cc1 (centres undefined) | > 20 µM (inactive)
c1ccc(C2CC(c3ccncc3)=NN2c2ccccc2)cc1 (centres undefined) | > 20 µM (inactive)
COc1ccc(N2N=C(c3ccncc3)CC2c2ccccc2)cc1 (centres undefined) | > 20 µM (inactive)
COc1ccc(N2N=C(c3ccc(SC)cc3)CC2c2ccccc2)cc1 (centres undefined) | > 20 µM (inactive)
CS(=O)(=O)c1ccc(N2N=C(c3ccncc3)CC2c2ccccc2)cc1 (centres undefined) | > 20 µM (inactive)
c1ccc(C2CC(c3ccccn3)=NN2c2ccccc2)cc1 (centres undefined) | > 20 µM (inactive)
COc1ccc(N2N=C(c3ccccc3)CC2c2ccccc2)cc1 (centres undefined) | > 20 µM (inactive)
CSc1ccc(C2=NN(c3ccc(C(=O)N4CCOCC4)cc3)C(c3ccccc3)C2)cc1 (centres undefined) | > 20 µM (inactive)
NS(=O)(=O)c1ccc(N2N=C(c3cccnc3)CC2c2ccccc2)cc1 (centres undefined) | > 20 µM (inactive)
c1ccc(C2CC(c3cccnc3)=NN2c2ccccc2)cc1 (centres undefined) | > 20 µM (inactive)
CSc1ccc(C2=NN(c3ccc(C(=O)N4CCCCC4)cc3)C(c3ccccc3)C2)cc1 (centres undefined) | > 20 µM (inactive)
CNC(=O)c1ccc(N2N=C(c3ccccc3)CC2c2ccccc2)cc1 (centres undefined) | > 20 µM (inactive)
COc1ccc(N2N=C(c3cccnc3)CC2c2ccccc2)cc1 (centres undefined) | > 20 µM (inactive)
COc1ccc(N2N=C(c3ccccn3)CC2c2ccccc2)cc1 (centres undefined) | > 20 µM (inactive)
CC(C)NC(=O)c1ccc(N2N=C(c3ccccc3)CC2c2ccccc2)cc1 (centres undefined) | > 20 µM (inactive)
CNC(=O)c1ccc(N2N=C(c3ccc(SC)cc3)CC2c2ccccc2)cc1 (centres undefined) | > 20 µM (inactive)
CS(=O)(=O)c1ccc(N2N=C(c3cccnc3)CC2c2ccccc2)cc1 (centres undefined) | > 20 µM (inactive)
